Key:
[1] = Stability in pH 7.4 for 2 weeks at 50 degC; format: physicochemical; settings: buffer, pH 7.4, 336 h
CYP [2] = test: Half life in rat assessed as CYP mediated metabolism in presence of […] by phase I metabolic oxidation assay; format: ADME
[3] = Cardiotoxicity in dog heart assessed as decrease in blood pressure at 300 mg/kg; format: toxicity, organism-based, Canis lupus familiaris; set-up: scale not given: the % may be the effect or the level left; settings: in vivo
CYP [4] = test: Half life in monkey assessed as CYP mediated metabolism in presence of […] by phase I metabolic oxidation assay; format: ADME, Macaca mulatta; settings: rhesus monkey
[5] = system: Human immunodeficiency virus 1; test: Antiviral activity against recombinant HIV1 NLRep-Rluc harbouring polymorphic TA infected in human MT-2 cells assessed as inhibition of virus growth in presence of fetal bovine serum by measuring luciferase activity after 5 days; format: functional, organism-based; settings: Human immunodeficiency virus 1, NLRep, MT2, 120 h
[6] = Cardiotoxicity in dog heart assessed as change in electrocardiographic parameter upto 128 uM of plasma concentration; format: toxicity, Canis lupus familiaris
CYP [7] = target: CYP (Homo sapiens, UniProt P04798+P05177+P05181+P08684+P10632+P10635+P11509+P11712+P13584+P20813+P20815+P20853+P24462+P24903+P33260+P33261+P51589+P78329+P98187+Q02928+Q08477+Q16678+Q16696+Q5TCH4+Q6VVX0+Q7Z449+Q8TAV3+Q96SQ9+Q9HB55); test: Half life in human assessed as CYP mediated metabolism in presence of […] by phase I metabolic oxidation assay; format: ADME, protein assay
[8] = Toxicity in dog assessed as vomiting at >=100 mg/kg, po administered as single dose; format: organism-based, Canis lupus familiaris; settings: in vivo
[9] = Toxicity in rat assessed as histological changes in spleen at 500 mg/kg/day; format: organism-based; settings: in vivo
CYP [10] = test: Half life in dog assessed as CYP mediated metabolism in presence of […] by phase I metabolic oxidation assay; format: ADME, Canis lupus familiaris
[11] = Stability in pH 4 for 2 weeks at 50 degC; format: physicochemical; settings: buffer, pH 4, 336 h
[12] = Toxicity in rat assessed as change in parathyroid gland at 500 mg/kg/day; format: organism-based; settings: in vivo
UGT [13] = target: UGT (Homo sapiens, UniProt O60656+O75310+O75795+P06133+P0DTE4+P0DTE5+P16662+P19224+P22309+P22310+P35503+P35504+P36537+P54855+Q6UWM9+Q9BY64+Q9HAW7+Q9HAW8+Q9HAW9); test: Metabolic stability assessed as human UGT-mediated metabolism by measuring half life by phase II UGT conjugation assay; format: ADME, protein assay
[14] = Tmax in Sprague-Dawley rat at 5 mg/kg, po by LC-MS/MS analysis; format: ADME, organism-based; settings: in vivo
[15] = Plasma protein binding in monkey; format: ADME, cell-free, Macaca mulatta; settings: rhesus monkey, read-out: PPB (converted)
[16] = Toxicity in rat assessed as maximum tolerated dose; settings: in vivo
[17] = Permeability of the compound at pH 5.5 by PAMPA assay; format: ADME; settings: read-out: permeability
[18] = Toxicity in rat at 500 mg/kg/day for one week; format: organism-based; settings: in vivo
UGT [19] = test: Metabolic stability assessed as dog UGT-mediated metabolism by measuring half life by phase II UGT conjugation assay; format: ADME, Canis lupus familiaris
[20] = Toxicity in rat assessed as histological changes in bone marrow at 500 mg/kg/day; format: organism-based; settings: in vivo
[21] = Bioavailability in Beagle dog at 2 mg/kg, po by LC-MS/MS analysis; format: ADME, organism-based, Canis lupus familiaris; settings: in vivo
Cytochrome P450 2C9 = Cytochrome P450 2C9 (Homo sapiens, UniProt P11712); test: Inhibition of human CYP2C9; format: ADME
[22] = AUC in Beagle dog at 2 mg/kg, po by LC-MS/MS analysis; format: ADME, organism-based, Canis lupus familiaris; set-up: dose 2 mg/kg; settings: in vivo
UGT [23] = test: Metabolic stability assessed as rat UGT-mediated metabolism by measuring half life by phase II UGT conjugation assay; format: ADME
[24] = Cmax in Sprague-Dawley rat at 5 mg/kg, po by LC-MS/MS analysis; format: ADME, organism-based; set-up: route oral, dose 5 mg/kg; settings: in vivo
[25] = system: Human immunodeficiency virus 1; test: Antiviral activity against recombinant HIV1 NLRep-Rluc harbouring polymorphic AA infected in human MT-2 cells assessed as inhibition of virus growth in presence of fetal bovine serum by measuring luciferase activity after 5 days; format: functional, organism-based; settings: Human immunodeficiency virus 1, NLRep, MT2, 120 h
[26] = Plasma protein binding in rat; format: ADME, cell-free; settings: read-out: PPB (converted)
[27] = Tmax in Beagle dog at 2 mg/kg, po by LC-MS/MS analysis; format: ADME, organism-based, Canis lupus familiaris; settings: in vivo
[28] = Toxicity in rat at 50 to 500 mg/kg in cannulated jugular vein; format: organism-based; settings: in vivo, iv, dose 50-500 mg/kg
[29] = AUC in cynomolgus monkey at 2 mg/kg, po by LC-MS/MS analysis; format: ADME, organism-based, Macaca fascicularis; set-up: dose 2 mg/kg; settings: in vivo
[30] = Elimination half life in CD-1 mouse at 1 mg/kg, iv by LC-MS/MS analysis; format: ADME, organism-based; settings: in vivo, read-out: beta t1/2 (converted)
Cytochrome P450 3A4 = Cytochrome P450 3A4 (Homo sapiens, UniProt P08684); test: Inhibition of human CYP3A4; format: ADME
[31] = Oral bioavailability in CD-1 mouse at 5 mg/kg by LC-MS/MS analysis; format: ADME, organism-based; settings: in vivo
[32] = Elimination half life in Cynomolgus monkey at 1 mg/kg, iv by LC-MS/MS analysis; format: ADME, organism-based, Macaca fascicularis; settings: in vivo, read-out: beta t1/2 (converted)
[33] = Clearance in Beagle dog at 1 mg/kg, iv by LC-MS/MS analysis; format: ADME, organism-based, Canis lupus familiaris; settings: in vivo
Cytochrome P450 1A2 = target: T1, Cytochrome P450 1A2 (Homo sapiens, UniProt P05177); test: Inhibition of human CYP1A2; format: ADME
T1 sequence (P05177 whole entry): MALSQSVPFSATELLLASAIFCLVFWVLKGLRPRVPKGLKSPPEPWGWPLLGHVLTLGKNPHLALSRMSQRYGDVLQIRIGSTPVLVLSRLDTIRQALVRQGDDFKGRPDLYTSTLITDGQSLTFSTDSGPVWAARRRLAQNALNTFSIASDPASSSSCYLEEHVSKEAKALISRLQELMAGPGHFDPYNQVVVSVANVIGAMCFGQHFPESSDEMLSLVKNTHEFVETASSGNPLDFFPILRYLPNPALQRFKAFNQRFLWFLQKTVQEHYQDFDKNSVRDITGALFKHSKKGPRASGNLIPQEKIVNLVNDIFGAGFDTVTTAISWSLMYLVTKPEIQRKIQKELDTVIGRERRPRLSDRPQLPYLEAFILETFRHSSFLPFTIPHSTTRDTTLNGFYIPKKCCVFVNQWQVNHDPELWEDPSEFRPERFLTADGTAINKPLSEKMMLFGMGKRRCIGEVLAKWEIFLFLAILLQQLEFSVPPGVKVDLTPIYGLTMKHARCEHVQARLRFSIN

[34] = system: Human immunodeficiency virus 1; test: Antiviral activity against recombinant HIV1 NLRep-Rluc harbouring polymorphic AT infected in human MT-2 cells assessed as inhibition of virus growth in presence of fetal bovine serum by measuring luciferase activity after 5 days; format: functional, organism-based; settings: Human immunodeficiency virus 1, NLRep, MT2, 120 h
[35] = Metabolic stability in human liver microsome assessed half life at 0.5 uM by LC-MS/MS analysis; format: ADME; settings: liver microsomes
[36] = Stability in pH 1 for 2 days at 50 degC; format: physicochemical; settings: buffer, pH 1, 48 h; time 2 day

Cytochrome P450 2C9, sequence (P11712 whole entry): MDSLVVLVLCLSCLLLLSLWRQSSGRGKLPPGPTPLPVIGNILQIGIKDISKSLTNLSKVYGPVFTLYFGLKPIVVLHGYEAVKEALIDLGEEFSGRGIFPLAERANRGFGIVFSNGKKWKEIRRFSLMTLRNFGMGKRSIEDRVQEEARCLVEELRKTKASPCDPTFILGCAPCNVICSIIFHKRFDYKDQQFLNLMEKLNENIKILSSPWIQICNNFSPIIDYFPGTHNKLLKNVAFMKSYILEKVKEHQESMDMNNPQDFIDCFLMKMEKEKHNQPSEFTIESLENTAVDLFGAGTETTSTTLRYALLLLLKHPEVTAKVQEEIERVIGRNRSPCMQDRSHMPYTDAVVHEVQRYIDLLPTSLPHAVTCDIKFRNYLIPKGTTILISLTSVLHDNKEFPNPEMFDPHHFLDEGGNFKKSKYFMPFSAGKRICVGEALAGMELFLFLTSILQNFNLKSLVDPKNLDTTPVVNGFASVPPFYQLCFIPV
Cytochrome P450 3A4, sequence (P08684 whole entry): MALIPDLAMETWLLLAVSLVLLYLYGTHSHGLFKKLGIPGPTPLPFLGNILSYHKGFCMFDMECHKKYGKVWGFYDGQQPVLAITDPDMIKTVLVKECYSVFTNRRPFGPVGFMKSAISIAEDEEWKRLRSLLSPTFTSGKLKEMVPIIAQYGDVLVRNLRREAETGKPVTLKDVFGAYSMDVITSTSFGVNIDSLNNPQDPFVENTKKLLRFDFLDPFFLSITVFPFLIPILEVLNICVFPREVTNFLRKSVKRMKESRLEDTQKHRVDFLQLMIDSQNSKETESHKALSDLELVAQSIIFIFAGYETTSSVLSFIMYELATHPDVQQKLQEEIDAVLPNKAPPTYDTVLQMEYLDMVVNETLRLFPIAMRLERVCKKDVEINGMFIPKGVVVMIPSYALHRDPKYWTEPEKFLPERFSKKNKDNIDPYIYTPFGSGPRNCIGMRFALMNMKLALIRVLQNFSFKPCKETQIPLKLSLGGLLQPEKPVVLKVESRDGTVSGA

SMILES: Cc1nc(C)c([C@H](OC(C)(C)C)C(=O)O)c(N2CCC(C)(C)CC2)c1-c1ccc(OCCc2ccc(F)cc2)cc1
- Stability [1]: Stable
- half-life (CYP [2]): > 2 h
- Activity [3]: 6%
- half-life (CYP [4]): 0.983 h
- EC50 [5]: 2.8 nM
- Activity [6]: Non-Toxic
- half-life (CYP [7]): 1.42 h
- Activity [8]: Toxic
- Activity [9]: Toxic
- half-life (CYP [10]): > 2 h
- Stability [11]: Stable
- Activity [12]: Toxic
- half-life (UGT [13]): ≥ 2 h
- Tmax [14]: 2.7 h
- fraction unbound [15]: 0.21
- MTD [16]: 50 mg/kg/day
- Papp [17]: 89.6 ×10⁻⁶ cm/s
- Activity [18]: Toxic
- half-life (UGT [19]): ≥ 2 h
- Activity [20]: Toxic
- bioavailability [21]: 75%
- IC50 (Cytochrome P450 2C9): ≥ 24300 nM
- AUC [22]: 18.5 µM·h
- half-life (UGT [23]): ≥ 2 h
- Cmax [24]: 2760 nM
- EC50 [25]: 3.2 nM
- fraction unbound [26]: 0.19
- Tmax [27]: 2 h
- Activity [28]: Non-Toxic
- AUC [29]: 2.23 µM·h
- half-life [30]: 6.3 h
- IC50 (Cytochrome P450 3A4): ≥ 24300 nM
- bioavailability [31]: 89%
- half-life [32]: 2.4 h
- clearance [33]: 2.9 mL/min/kg
- IC50 (Cytochrome P450 1A2): ≥ 24300 nM
- EC50 [34]: 5.1 nM
- half-life at 0.5 µM [35]: 1.42 h
- Stability [36]: Unstable

Source: ChEMBL document CHEMBL5046290, “Design, Synthesis, and Preclinical Profiling of GSK3739936 (BMS-986180), an Allosteric Inhibitor of HIV-1 Integrase with Broad-Spectrum Activity toward 124/125 Polymorphs” (J Med Chem, 2022)
